Where two headings read alike, the source gives them in different places.
Assay: First-in-human Part 2 multiple ascending dose q.d. blood and urine PK
Assay type: in vivo
Conditions: human, oral; for Cmax: read-out: Cmax; for MRT: read-out: MRT; for Vd/F: read-out: Vss/F; for half-life: read-out: T½ (converted)
Excerpt: First-in-human study in up to approximately 168 healthy volunteers (HVs), of which 64 (in Parts 2 & 4) had asymptomatic atopic diathesis. • Part 1 was a double-blind (subject and investigator blind, sponsor unblinded), placebo-controlled single ascending dose (SAD) escalation study of 10 cohorts (N=80) • Part 2 was a double-blind (subject and investigator blind, sponsor unblinded), placebo-controlled multiple ascending dose (MAD) (13 doses over 12 days) escalation study employing once daily dosing in 6 cohorts in healthy volunteers with asymptomatic atopic diathesis (N=48) • Part 3 was a single dose open-label crossover food effect study in 12 HVs • Part 4 was a double-blind (subject and investigator blind, sponsor unblinded), placebo-controlled multiple dose (25 doses over 12 days) study employing twice daily dosing in 2 cohorts of healthy volunteers with asymptomatic atopic diathesis (N=16)
In Parts 2 and 4, subjects were admitted on Day −2 or −1 for baseline safety assessments and to confirm eligibility. Eligible subjects received the first dose of compound (I) under fasting conditions on Day 1, and continued to take study medication under fasting conditions up to and including Day 12. Subjects were domiciled from Day −2 or −1 until the morning of Day 16, which equals 96 hours after the last dose of compound (I) was received. In Parts 2 and 4, the study medication was given once daily and twice daily respectively (details are found in the schedule of assessments).
Subjects were assigned to one of the following 6 cohorts. In each cohort, 8 subjects were randomized to either compound (I) or matching placebo in a 6:2 ratio. • Cohort 1: multiple oral doses of 10 mg compound (I) or matching placebo • Cohort 2: multiple oral doses of 25 mg compound (I) or matching placebo • Cohort 3: multiple oral doses of 50 mg compound (I) or matching placebo • Cohort 4: multiple oral doses of 100 mg compound (I) or matching placebo • Cohort 5: multiple oral doses of 400 mg compound (I) or matching placebo • Cohort 6: multiple oral doses of up to 600 mg compound (I) or matching placebo
Pharmacokinetic samples were obtained in blood and evaluated in all subjects at all dose levels. The samples from placebo subjects were not analyzed. The samples for PK assessments from subjects were collected at time points defined in the study. Compound (I) concentrations were determined in blood by a validated LC-MS/MS method.

[1] = blood, 10 mg, 10 mg qd, Day 1, blood, Median (Min-Max)
[2] = blood, 10 mg, 10 mg qd, Day 12, blood, Median (Min-Max)
[3] = blood, 25 mg, 25 mg qd, Day 1, blood, Median (Min-Max)
[4] = blood, 25 mg, 25 mg qd, Day 12, blood, Median (Min-Max)
[5] = blood, 50 mg, 50 mg qd, Day 1, blood, Median (Min-Max)
[6] = blood, 50 mg, 50 mg qd, Day 12, blood, Median (Min-Max)
[7] = blood, 100 mg, 100 mg qd, Day 12, blood, Median (Min-Max)
[8] = blood, 400 mg, 400 mg qd, Day 12, blood, Median (Min-Max)
[9] = blood, 600 mg, 600 mg qd, Day 12, blood, Median (Min-Max)

AUC(0-t) (blood, 10 mg, 10 mg qd, Day 1, blood, Median (Min-Max), read-out: AUClast): 4.4 ng·h/mL
Cmax [1]: 8.03 ng/mL
MRT [1]: 0.766 h
Vd/F (blood, 10 mg, 10 mg qd, Day 12, blood, Mean ± SD): 554 ± 90.4 L
Tmax [2]: 0.625 h
Cmax [2]: 17.2 ng/mL
Vd/F [2]: 562 L
AUC(0-t) (blood, 25 mg, 25 mg qd, Day 1, blood, Mean ± SD, read-out: AUC0-24): 44.9 ± 25.2 ng·h/mL
AUC(0-t) (blood, 25 mg, 25 mg qd, Day 1, blood, Mean ± SD, read-out: AUClast): 43.9 ± 24.6 ng·h/mL
MRT (blood, 25 mg, 25 mg qd, Day 1, blood, Mean ± SD): 1.18 ± 0.49 h
AUC(0-t) (blood, 25 mg, 25 mg qd, Day 1, blood, Median (Min-Max), read-out: AUC0-24): 46.6 ng·h/mL
AUC(0-t) (blood, 25 mg, 25 mg qd, Day 1, blood, Median (Min-Max), read-out: AUClast): 45.5 ng·h/mL
Cmax [3]: 37.3 ng/mL
MRT [3]: 1.17 h
Vd/F (blood, 25 mg, 25 mg qd, Day 12, blood, Mean ± SD): 407 ± 208 L
Cmax [4]: 78.4 ng/mL
Vd/F [4]: 334 L
AUC(0-t) (blood, 50 mg, 50 mg qd, Day 1, blood, Mean ± SD, read-out: AUC0-24): 116 ± 32.9 ng·h/mL
AUC(0-t) (blood, 50 mg, 50 mg qd, Day 1, blood, Mean ± SD, read-out: AUClast): 113 ± 34.2 ng·h/mL
MRT (blood, 50 mg, 50 mg qd, Day 1, blood, Mean ± SD): 2.53 ± 1.17 h
Tmax [5]: 0.5 h
AUC(0-t) (blood, 50 mg, 50 mg qd, Day 1, blood, Median (Min-Max), read-out: AUC0-24): 107 ng·h/mL
AUC(0-t) (blood, 50 mg, 50 mg qd, Day 1, blood, Median (Min-Max), read-out: AUClast): 103 ng·h/mL
Cmax [5]: 70.1 ng/mL
MRT [5]: 2.44 h
Vd/F (blood, 50 mg, 50 mg qd, Day 12, blood, Mean ± SD): 431 ± 172 L
Tmax [6]: 1 h
Vd/F [6]: 346 L
MRT (blood, 100 mg, 100 mg qd, Day 1, blood, Median (Min-Max)): 2.16 h
Vd/F (blood, 100 mg, 100 mg qd, Day 12, blood, Mean ± SD): 1910 ± 2780 L
Cmax [7]: 205 ng/mL
Vd/F [7]: 338 L
AUC(0-t) (blood, 400 mg, 400 mg qd, Day 1, blood, Median (Min-Max), read-out: AUC0-24): 826 ng·h/mL
AUC(0-t) (blood, 400 mg, 400 mg qd, Day 1, blood, Median (Min-Max), read-out: AUClast): 826 ng·h/mL
MRT (blood, 400 mg, 400 mg qd, Day 1, blood, Median (Min-Max)): 2.94 h
Vd/F (blood, 400 mg, 400 mg qd, Day 12, blood, Mean ± SD): 4400 ± 3340 L
Cmax [8]: 476 ng/mL
Vd/F [8]: 3440 L
AUC(0-t) (blood, 600 mg, 600 mg qd, Day 1, blood, Median (Min-Max), read-out: AUC0-24): 932 ng·h/mL
AUC(0-t) (blood, 600 mg, 600 mg qd, Day 1, blood, Median (Min-Max), read-out: AUClast): 931 ng·h/mL
MRT (blood, 600 mg, 600 mg qd, Day 1, blood, Median (Min-Max)): 3.22 h
Vd/F (blood, 600 mg, 600 mg qd, Day 12, blood, Mean ± SD): 7130 ± 5120 L
Cmax [9]: 475 ng/mL
Vd/F [9]: 7070 L
concentration at 24 h (blood, multiple doses, typical, read-out: blood concentration at 24 hours post last dose): < 1 ng/mL
AUC(0-inf) (whole blood, 10 mg, 10 mg qd, Day 12, blood, Mean ± SD): 24.7 ± 3.65 ng·h/mL
AUC(0-t) (whole blood, 10 mg, 10 mg qd, Day 12, blood, Mean ± SD, read-out: AUC0-24): 24 ± 3.6 ng·h/mL
AUC(0-t) (whole blood, 10 mg, 10 mg qd, Day 12, blood, Mean ± SD, read-out: AUClast): 22.9 ± 3.5 ng·h/mL
AUC(0-inf) (whole blood, 10 mg, 10 mg qd, Day 12, blood, Median (Min-Max)): 24.3 ng·h/mL
AUC(0-t) (whole blood, 10 mg, 10 mg qd, Day 12, blood, Median (Min-Max), read-out: AUC0-24): 23.6 ng·h/mL
AUC(0-t) (whole blood, 10 mg, 10 mg qd, Day 12, blood, Median (Min-Max), read-out: AUClast): 22.4 ng·h/mL
AUC(0-inf) (whole blood, 25 mg, 25 mg qd, Day 12, blood, Mean ± SD): 117 ± 60.4 ng·h/mL
AUC(0-t) (whole blood, 25 mg, 25 mg qd, Day 12, blood, Mean ± SD, read-out: AUC0-24): 117 ± 60.9 ng·h/mL
AUC(0-t) (whole blood, 25 mg, 25 mg qd, Day 12, blood, Mean ± SD, read-out: AUClast): 114 ± 59.7 ng·h/mL
AUC(0-inf) (whole blood, 25 mg, 25 mg qd, Day 12, blood, Median (Min-Max)): 102 ng·h/mL
AUC(0-t) (whole blood, 25 mg, 25 mg qd, Day 12, blood, Median (Min-Max), read-out: AUC0-24): 101 ng·h/mL
AUC(0-t) (whole blood, 25 mg, 25 mg qd, Day 12, blood, Median (Min-Max), read-out: AUClast): 98.2 ng·h/mL
AUC(0-inf) (whole blood, 50 mg, 50 mg qd, Day 12, blood, Mean ± SD): 209 ± 80 ng·h/mL
AUC(0-t) (whole blood, 50 mg, 50 mg qd, Day 12, blood, Mean ± SD, read-out: AUC0-24): 209 ± 80.2 ng·h/mL
AUC(0-t) (whole blood, 50 mg, 50 mg qd, Day 12, blood, Mean ± SD, read-out: AUClast): 207 ± 80.4 ng·h/mL
AUC(0-inf) (whole blood, 50 mg, 50 mg qd, Day 12, blood, Median (Min-Max)): 181 ng·h/mL
AUC(0-t) (whole blood, 50 mg, 50 mg qd, Day 12, blood, Median (Min-Max), read-out: AUC0-24): 181 ng·h/mL
AUC(0-t) (whole blood, 50 mg, 50 mg qd, Day 12, blood, Median (Min-Max), read-out: AUClast): 179 ng·h/mL
AUC(0-inf) (whole blood, 100 mg, 100 mg qd, Day 12, blood, Mean ± SD): 577 ± 207 ng·h/mL
AUC(0-inf) (whole blood, 100 mg, 100 mg qd, Day 12, blood, Median (Min-Max)): 595 ng·h/mL
AUC(0-t) (whole blood, 100 mg, 100 mg qd, Day 12, blood, Median (Min-Max), read-out: AUC0-24): 429 ng·h/mL
AUC(0-t) (whole blood, 100 mg, 100 mg qd, Day 12, blood, Median (Min-Max), read-out: AUClast): 444 ng·h/mL
AUC(0-inf) (whole blood, 400 mg, 400 mg qd, Day 12, blood, Mean ± SD): 1330 ± 608 ng·h/mL
AUC(0-inf) (whole blood, 400 mg, 400 mg qd, Day 12, blood, Median (Min-Max)): 1210 ng·h/mL
AUC(0-t) (whole blood, 400 mg, 400 mg qd, Day 12, blood, Median (Min-Max), read-out: AUC0-24): 1140 ng·h/mL
AUC(0-t) (whole blood, 400 mg, 400 mg qd, Day 12, blood, Median (Min-Max), read-out: AUClast): 1180 ng·h/mL
AUC(0-inf) (whole blood, 600 mg, 600 mg qd, Day 12, blood, Mean ± SD): 1260 ± 338 ng·h/mL
AUC(0-inf) (whole blood, 600 mg, 600 mg qd, Day 12, blood, Median (Min-Max)): 1090 ng·h/mL
AUC(0-t) (whole blood, 600 mg, 600 mg qd, Day 12, blood, Median (Min-Max), read-out: AUC0-24): 1060 ng·h/mL
half-life (whole blood, 10 mg qd, Day 12, blood, Median (Min-Max)): 0.961 h
half-life (whole blood, 25 mg qd, Day 12, blood, Median (Min-Max)): 1.15 h
half-life (whole blood, 50 mg qd, Day 12, blood, Median (Min-Max)): 1.15 h
SMILES: C=CC(=O)N(C)CCOc1c(N)ncnc1-c1cc(F)cc(NC(=O)c2ccc(C3CC3)cc2F)c1C [Compound of Formula (I), N-(3-(6-Amino-5-(2-(N-methylacrylamido)ethoxy)pyrimidin-4-yl)-5-fluoro-2-methylphenyl)-4-cyclopropyl-2-fluorobenzamide]
